Reference: patent US20260022098A1, “BULLEYACONITINE A DERIVATIVE WITH ANALGESIC ACTIVITY, AND PREPARATION METHOD AND APPLICATION THEREOF” (priority 2023, published 2026)
Read-outs that look alike come from different tables or passages of the source.

What was measured:
Kunming mice [1] = assay: Acute toxicity / median lethal dose (LD50) determination, subcutaneous injection; assay type: in vivo; parameters: key to Acute toxicity: if death occurred, (+) represented as positive; if no death occurred, (−) represented as negative; details: mice administered 20 mg/kg subcutaneously, presence of death within 24 h
Outline: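 Kunming mice (22±2 g, 1:1 male:female, fasted 12 h), 10 per group, given compound subcutaneously at 0.1 mL/10 g in saline after 1:1 molar dissolution in 0.1 mol/L HCl. At least 5 proportional dose groups set from a 20 mg/kg pilot; 24 h survival, LD50 by Probit regression.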

[2] = test system: LPS-induced RAW 264.7 cells; assay: Griess assay, inhibition of NO release in LPS-induced RAW 264.7 cells; assay type: cell-based; details: Griess method, compound at 30 M (so in the source), 22 h
Method: (§1) The effect of the compound to be tested on viability of RAW 264.7 cells at a concentration of […] was assessed through MTT assay (Methylthiazolyldiphenyl-tetrazolium bromide assay), and the inhibition on NO release in the inflammatory response of LPS-induced RAW 264.7 cells at 30 µM was determined through Griess method. Specific methods were described as follows.
RAW264.7 cells beyond third passage were added to a culture medium and gently pipetted to detach, forming a cell suspension. 10 μL of the cell suspension was applied onto a hemocytometer slide for counting, and cells were seeded into a 96-well plate at a density of 3×10^4 cells per well with 100 μL of the cell suspension per well. After incubated at 37° C. with […] for 24 h, supernatant was removed. The blank group received 100 μL of DMSO (1/1000 dilution) per well, a LPS (lipopolysaccharide) group received 100 μL of DMSO (1/1000 dilution) per well, and the experimental groups received 100 μL of the test samples per well. The LPS group received 1 μg/ml of LPS by […] per well, and the experimental groups received […] of LPS by 3 μg per well. After 22 h, 50 μL of supernatant was transferred into another 96-well plate, added with Griess Reagent I in a NO assay kit by 50 μL per well, then added with Griess Reagent II by 50 μL per well, and subjected to an absorbance test at 562 nm. Nitric oxide (NO) concentration was calculated based on a standard curve, which was specifically as follows: NO inhibition rate (%)=(ODLPS−ODTest)/(ODLPS−ODBlank)×100).

Kunming mice [3] = assay: Analgesic activity by acetic acid-induced writhing method (writhing inhibition rate, ED50); assay type: in vivo; details: Mus musculus, sc, read-out: Analgesia rate (%) ± SEM
Outline: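 Kunming mice (22±2 g, 1:1 sex, 12 h fasted, 10/group) got compound s.c. (dissolved 1:1 molar with 0.1 mol/L HCl, diluted in saline); 0.7% acetic acid i.p. 15 min later, writhes counted over 15 min. Inhibition rate vs saline blank; ED50 by Probit regression over ≥5 doses.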

RAW 264.7 cells = assay: MTT assay, viability of RAW 264.7 cells; assay type: cell-based; details: compound diluted to 30 mol/L (so in the source), 12 h
Method: as §1
An MTT solution (5 mg/mL) was prepared with a PBS buffer, filter-sterilized through a 0.22 μm filter membrane, and stored protected from light at low temperature. Each compound was dissolved in DMSO to prepare a 50 mmol/L stock solution, and stored from light at low (frozen) temperature. The stock solution was diluted to 30 mol/L with DMEM (Dulbecco's modified Eagle's medium) containing 10% FBS (fetal bovine serum). RAW264.7 cells beyond third passage were added to a culture medium and gently pipetted to detach, forming a cell suspension. 10 μL of the cell suspension was applied onto a hemocytometer slide for counting, and cells were seeded into 96-well plates at a density of 6×10^3 cells per well with 100 μL of the cell suspension per well. After incubated at 37° C. with 5% CO2 for 24 h, supernatant was removed. A zero-adjustment group (CO group) received 100 μL of medium per well, the blank group (CK group) received 100 μL of DMSO (1/1000 dilution) per well, and the experimental groups received 100 μL of the test samples per well. After 12 h, supernatant was removed, and […] of MTT solution was added into each well at 120 μL per well. After incubated in COz at a constant temperature for 4 h, supernatant was removed, and DMSO was added into each well by 150 μL per well. The mixture was shaken at 50 r/min for 10 min and subjected to an absorbance test at 492 nm. Relative cell viability (x) was calculated through a formula as follows: relative cell viability (%)=(ODTest−ODCO)/(ODCK−ODCO)×100%.

[4] = dosing concentration 0.05 mg/kg, subcutaneous, acetic acid-induced writhing, mice
[5] = dosing concentration 0.5 mg/kg, subcutaneous, acetic acid-induced writhing, mice

Structure (SMILES) | Acute toxicity (Kunming mice [1]) | Inflammatory NO inhibition rate [2] [%] | inhibition in vivo at 0.05 mg/kg (Kunming mice [3]) [%] | inhibition in vivo at 0.5 mg/kg (Kunming mice [3]) [%] | RAW cell viability (RAW 264.7 cells) | inhibition in vivo at 0.05 mg/kg (Kunming mice [3]; [4]) [%] | inhibition in vivo at 0.5 mg/kg (Kunming mice [3]; [5]) [%]
CCO[C@]12C[C@H](OC)[C@@]3(OC(=O)c4ccc([N+](=O)[O-])cc4)CC(C1[C@H]3OC(=O)c1ccc([N+](=O)[O-])cc1)[C@]13C4[C@@H](OC)C2[C@H]1N(CC)C[C@]4(COC)CC[C@@H]3OC (stereo partly drawn) [Compound 38] | − | 23 ± 5.6 | 42.4 ± 1.5 | 56.2 ± 1 | 99.37 ± 10.29 ns % |  | 
CCO[C@]12C[C@H](OC)[C@@]3(OC(=O)c4ccc(F)cc4)CC(C1[C@H]3OC(=O)c1ccc(F)cc1)[C@]13C4[C@@H](OC)C2[C@H]1N(CC)C[C@]4(COC)CC[C@@H]3OC (stereo partly drawn) [Compound 59] | − |  |  |  | 7.00 ± 1.38 % | 43.5 ± 2.5 | 57.6 ± 0.9
CCCC(=O)O[C@]12CC3C([C@H]1OC(=O)c1ccc(OC)cc1)[C@](OC(C)=O)(C[C@@H]2OC)C1[C@H](OC)C2[C@@]4(COC)CC[C@H](OC)[C@@]32[C@@H]1N(CC)C4 (stereo partly drawn) [Compound 79] | − | 42 ± 4.69 |  |  | 101.29 ± 2.63 ns % | 37.9 ± 2 | 
CCO[C@]12C[C@H](OC)[C@@]3(OC(=O)CC(C)(C)C)CC(C1[C@H]3OC(=O)c1ccc(OC)cc1)[C@]13C4[C@@H](OC)C2[C@H]1N(CC)C[C@]4(COC)CC[C@@H]3OC (stereo partly drawn) [Compound 90] | − | 12 ± 4.85 |  |  | 101.74 ± 7.63 ns % | 41.9 ± 1.9 | 59 ± 0.8
CCO[C@]12C[C@H](OC)[C@@]3(OC(=O)c4ccc(Br)cc4)CC(C1[C@H]3OC(=O)c1ccc(OC)cc1)[C@]13C4[C@@H](OC)C2[C@H]1N(CC)C[C@]4(COC)CC[C@@H]3OC (stereo partly drawn) [Compound 91] | − |  | 31.4 ± 1.5 |  |  |  | 
CCN1C[C@]2(COC)CC[C@H](OC)[C@@]34C5C[C@]6(OC(=O)c7ccc(Br)cc7)[C@@H](OC)C[C@@](OC(C)=O)(C5[C@H]6OC(=O)c5ccc(OC)cc5)C([C@H](OC)C23)[C@@H]14 (stereo partly drawn) [Compound 92] | − |  | 4.12 ± 1.7 |  |  |  | 
CCO[C@]12C[C@H](OC)[C@@]3(OC(=O)Cc4cccs4)CC(C1[C@H]3OC(=O)Cc1cccs1)[C@]13C4[C@@H](OC)C2[C@H]1N(CC)C[C@]4(COC)CC[C@@H]3OC (stereo partly drawn) [Compound 93] | − |  | 10.5 ± 2.3 |  |  |  | 
CCO[C@]12C[C@H](OC)[C@@]3(OC(=O)c4ccc(OC(F)(F)F)cc4)CC(C1[C@H]3OC(=O)c1ccc(OC(F)(F)F)cc1)[C@]13C4[C@@H](OC)C2[C@H]1N(CC)C[C@]4(COC)CC[C@@H]3OC (stereo partly drawn) [Compound 94] | − |  | 0 |  |  |  | 
CCO[C@]12C[C@H](OC)[C@@]3(OC(=O)c4cccc(C#N)c4)CC(C1[C@H]3OC(=O)c1cccc(C#N)c1)[C@]13C4[C@@H](OC)C2[C@H]1N(CC)C[C@]4(COC)CC[C@@H]3OC (stereo partly drawn) [Compound 95] | − |  | 23.8 ± 1.1 |  |  |  | 
CCO[C@]12C[C@H](OC)[C@@]3(OC(=O)c4cc([N+](=O)[O-])cc([N+](=O)[O-])c4)CC(C1[C@H]3OC(=O)c1cc([N+](=O)[O-])cc([N+](=O)[O-])c1)[C@]13C4[C@@H](OC)C2[C@H]1N(CC)C[C@]4(COC)CC[C@@H]3OC (stereo partly drawn) [Compound 96] | − |  | 30.1 ± 1.3 |  |  |  | 
